# ChEMBL document CHEMBL5257089, “Gamabufotalin Induces Apoptosis and Cytoprotective Autophagy through the mTOR Signaling Pathway in Hepatocellular Carcinoma” (J Nat Prod, 2023)
# Calls of active or inactive are those of the source. The rule behind the calls is not given here.
# Key:
# Huh-7 [1] = assay: Induction of apoptosis in human Huh-7 cells assessed as reduction in bcl-2 level at 10 uM incubated for 48 hrs in presence of gamabufotalin by immunoblot analysis; type: functional, cell-based
# Huh-7 [2] = assay: Induction of apoptosis in human Huh-7 cells assessed as upregulation of bax level at 10 uM incubated for 48 hrs in presence of gamabufotalin by immunoblot analysis; type: functional, cell-based
# Hep 3B2 [3] = assay: Induction of apoptosis in human Hep3B cells assessed as upregulation of bax level at 10 uM incubated for 48 hrs in presence of gamabufotalin by immunoblot analysis; type: functional, cell-based
# Huh-7 [4] = assay: Induction of apoptosis in human Huh-7 cells assessed as late apoptotic cells at 10 nM incubated for 48 hrs by Annexin V-FITC/PI staining based flow cytometry method (reference value: 3.8%); type: functional
# Huh-7 [5] = assay: Induction of apoptosis in human Huh-7 cells assessed as upregulation of PARP level at 10 uM incubated for 48 hrs in presence of gamabufotalin by immunoblot analysis; type: functional, cell-based
# Hep 3B2 [6] = assay: Induction of apoptosis in human Hep3B cells assessed as late apoptotic cells at 10 nM incubated for 48 hrs in presence of gamabufotalin by Annexin V-FITC/PI staining based flow cytometry method (reference value: 2.2%); type: functional
# Hep 3B2 [7] = assay: Induction of autophagy in human Hep3B cells harbouring mCherry-egfp-LC3 assessed as reduction in red puncta ratio at 10 nM incubated for 15 mins in presence of gamabufotalin by laser scanning confocal microscopic analysis; type: functional, cell-based
# Huh-7 [8] = assay: Induction of autophagy in human Huh-7 cells harbouring mCherry-egfp-LC3 assessed as reduction in yellow puncta ratio at 10 nM incubated for 15 mins in presence of gamabufotalin by laser scanning confocal microscopic analysis; type: functional, cell-based
# Hep 3B2 [9] = assay: Induction of apoptosis in human Hep3B cells assessed as upregulation of cleaved caspase-3 level at 10 uM incubated for 48 hrs in presence of gamabufotalin by immunoblot analysis; type: functional, cell-based
# Hep 3B2 [10] = assay: Induction of autophagy in human Hep3B cells assessed as downregulation of LC3II/LC3I ratio at 10 uM incubated for 48 hrs in presence of gamabufotalin by immunoblot analysis; type: functional, cell-based
# Hep 3B2 [11] = assay: Induction of autophagy in human Hep3B cells assessed as reduction in autophagic vesicles at 10 nM incubated for 48 hrs in presence of gamabufotalin by transmission electron microscopy based analysis; type: functional, cell-based
# Hep 3B2 [12] = assay: Induction of autophagy in human Hep3B cells assessed as restoration of ULK1 phosphorylation expression at 10 uM incubated for 48 hrs in presence of gamabufotalin by immunoblot analysis; type: functional, cell-based
# Huh-7 [13] = assay: Induction of apoptosis in human Huh-7 cells assessed as late apoptotic cells at 10 nM incubated for 48 hrs in presence of gamabufotalin by Annexin V-FITC/PI staining based flow cytometry method (reference value: 3.8%); type: functional
# Huh-7 [14] = assay: Induction of apoptosis in human Huh-7 cells assessed as upregulation of caspase-3 level at 10 uM incubated for 48 hrs in presence of gamabufotalin by immunoblot analysis; type: functional, cell-based
# Huh-7 [15] = assay: Induction of apoptosis in human Huh-7 cells assessed as early apoptotic cells at 10 nM incubated for 48 hrs by Annexin V-FITC/PI staining based flow cytometry method (reference value: 4.3%); type: functional
# Hep 3B2 [16] = assay: Induction of apoptosis in human Hep3B cells assessed as reduction in bcl-2 level at 10 uM incubated for 48 hrs in presence of gamabufotalin by immunoblot analysis; type: functional, cell-based
# Huh-7 [17] = assay: Induction of autophagy in human Huh-7 cells assessed as restoration of ULK1 phosphorylation expression at 10 uM incubated for 48 hrs in presence of gamabufotalin by immunoblot analysis; type: functional, cell-based
# Hep 3B2 [18] = assay: Induction of apoptosis in human Hep3B cells assessed as upregulation of cleaved PARP level at 10 uM incubated for 48 hrs in presence of gamabufotalin by immunoblot analysis; type: functional, cell-based
# Hep 3B2 [19] = assay: Induction of apoptosis in human Hep3B cells assessed as necrotic cells at 10 nM incubated for 48 hrs in presence of gamabufotalin by Annexin V-FITC/PI staining based flow cytometry method (reference value: 0.7%); type: functional
# Hep 3B2 [20] = assay: Induction of apoptosis in human Hep3B cells assessed as early apoptotic cells at 10 nM measured after 48 hrs in presence of gamabufotalin by Annexin V-FITC/PI staining based flow cytometry method (reference value: 1.3%); type: functional
# Hep 3B2 [21] = assay: Induction of apoptosis in human Hep3B cells assessed as upregulation of PARP level at 10 uM incubated for 48 hrs in presence of gamabufotalin by immunoblot analysis; type: functional, cell-based
# Huh-7 [22] = assay: Induction of apoptosis in human Huh-7 cells assessed as necrotic cells at 10 nM incubated for 48 hrs by Annexin V-FITC/PI staining based flow cytometry method (reference value: 1.9%); type: functional
# Hep 3B2 [23] = assay: Induction of autophagy in human Hep3B cells assessed as restoration of mTOR phosphorylation expression at 10 uM incubated for 48 hrs in presence of gamabufotalin by immunoblot analysis; type: functional, cell-based
# Huh-7 [24] = assay: Induction of autophagy in human Huh-7 cells assessed as reduction in autophagic vesicles at 10 nM incubated for 48 hrs in presence of gamabufotalin by transmission electron microscopy based analysis; type: functional, cell-based
# Hep 3B2 [25] = assay: Induction of apoptosis in human Hep3B cells assessed as viable cells at 10 nM incubated for 48 hrs by Annexin V-FITC/PI staining based flow cytometry method (Rvb =95.7%); type: functional; details: read-out: Activity
# Huh-7 [26] = assay: Induction of autophagy in human Huh-7 cells assessed as upregulation of p62 at 10 uM incubated for 48 hrs in presence of gamabufotalin by immunoblot analysis; type: functional, cell-based
# Hep 3B2 [27] = assay: Induction of autophagy in human Hep3B cells assessed as upregulation of p62 at 10 uM incubated for 48 hrs in presence of gamabufotalin by immunoblot analysis; type: functional, cell-based
# Huh-7 [28] = assay: Induction of apoptosis in human Huh-7 cells assessed as upregulation of cleaved PARP level at 10 uM incubated for 48 hrs in presence of gamabufotalin by immunoblot analysis; type: functional, cell-based
# Hep 3B2 [29] = assay: Induction of autophagy in human Hep3B cells harbouring mCherry-egfp-LC3 assessed as reduction in yellow puncta ratio at 10 nM incubated for 15 mins in presence of gamabufotalin by laser scanning confocal microscopic analysis; type: functional, cell-based
# Huh-7 [30] = assay: Induction of apoptosis in human Huh-7 cells assessed as upregulation of cleaved caspase-3 level at 10 uM incubated for 48 hrs in presence of gamabufotalin by immunoblot analysis; type: functional, cell-based
# Hep 3B2 [31] = assay: Induction of apoptosis in human Hep3B cells assessed as late apoptotic cells at 10 nM incubated for 48 hrs by Annexin V-FITC/PI staining based flow cytometry method (reference value: 2.2%); type: functional
# Huh-7 [32] = assay: Induction of apoptosis in human Huh-7 cells assessed as viable cells at 10 nM incubated for 48 hrs in presence of gamabufotalin by Annexin V-FITC/PI staining based flow cytometry method (reference value: 90.0%); type: functional; details: read-out: Activity
# Huh-7 [33] = assay: Induction of apoptosis in human Huh-7 cells assessed as necrotic cells at 10 nM incubated for 48 hrs in presence of gamabufotalin by Annexin V-FITC/PI staining based flow cytometry method (reference value: 1.9%); type: functional
# Hep 3B2 [34] = assay: Induction of apoptosis in human Hep3B cells assessed as necrotic cells at 10 nM incubated for 48 hrs by Annexin V-FITC/PI staining based flow cytometry method (reference value: 0.7%); type: functional
# Huh-7 [35] = assay: Induction of autophagy in human Huh-7 cells assessed as restoration of mTOR phosphorylation expression at 10 uM incubated for 48 hrs in presence of gamabufotalin by immunoblot analysis; type: functional, cell-based
# Hep 3B2 [36] = assay: Induction of apoptosis in human Hep3B cells assessed as viable cells at 10 nM incubated for 48 hrs in presence of gamabufotalin by Annexin V-FITC/PI staining based flow cytometry method (Rvb =95.7%); type: functional; details: read-out: Activity
# Hep 3B2 [37] = assay: Induction of apoptosis in human Hep3B cells assessed as early apoptotic cells at 10 nM measured after 48 hrs by Annexin V-FITC/PI staining based flow cytometry method (reference value: 1.3%); type: functional
# Huh-7 [38] = assay: Induction of apoptosis in human Huh-7 cells assessed as early apoptotic cells at 10 nM incubated for 48 hrs in presence of gamabufotalin by Annexin V-FITC/PI staining based flow cytometry method (reference value: 4.3%); type: functional
# Huh-7 [39] = assay: Induction of autophagy in human Huh-7 cells assessed as downregulation of LC3II/LC3I ratio at 10 uM incubated for 48 hrs in presence of gamabufotalin by immunoblot analysis; type: functional, cell-based
# Hep 3B2 [40] = assay: Induction of apoptosis in human Hep3B cells assessed as upregulation of caspase-3 level at 10 uM incubated for 48 hrs in presence of gamabufotalin by immunoblot analysis; type: functional, cell-based
# Huh-7 [41] = assay: Induction of apoptosis in human Huh-7 cells assessed as viable cells at 10 nM incubated for 48 hrs by Annexin V-FITC/PI staining based flow cytometry method (reference value: 90.0%); type: functional; details: read-out: Activity
# Huh-7 [42] = assay: Induction of autophagy in human Huh-7 cells harbouring mCherry-egfp-LC3 assessed as reduction in red puncta ratio at 10 nM incubated for 15 mins in presence of gamabufotalin by laser scanning confocal microscopic analysis; type: functional, cell-based
compound,measurement,setting,value
O=[N+]([O-])c1ccc(Nc2nc(N3CCOCC3)nc(N3CCOCC3)n2)cc1,Activity,Huh-7 [1],Active
same,Activity,Huh-7 [2],Active
same,Activity,Hep 3B2 [3],Active
same,Activity,Huh-7 [4],2.9%
same,Activity,Huh-7 [5],Active
same,Activity,Hep 3B2 [6],20.2%
same,Activity,Hep 3B2 [7],Active
same,Activity,Huh-7 [8],Active
same,Activity,Hep 3B2 [9],Active
same,Activity,Hep 3B2 [10],Active
same,Activity,Hep 3B2 [11],Active
same,Activity,Hep 3B2 [12],Active
same,Activity,Huh-7 [13],6.6%
same,Activity,Huh-7 [14],Active
same,Activity,Huh-7 [15],3.8%
same,Activity,Hep 3B2 [16],Active
same,Activity,Huh-7 [17],Active
same,Activity,Hep 3B2 [18],Active
same,Activity,Hep 3B2 [19],1.7%
same,Activity,Hep 3B2 [20],10.9%
same,Activity,Hep 3B2 [21],Active
same,Activity,Huh-7 [22],0.7%
same,Activity,Hep 3B2 [23],Active
same,Activity,Huh-7 [24],Active
same,viability at 0.01 µM,Hep 3B2 [25],94%
same,Activity,Huh-7 [26],Active
same,Activity,Hep 3B2 [27],Active
same,Activity,Huh-7 [28],Active
same,Activity,Hep 3B2 [29],Active
same,Activity,Huh-7 [30],Active
same,Activity,Hep 3B2 [31],3.4%
same,viability at 0.01 µM,Huh-7 [32],76.8%
same,Activity,Huh-7 [33],1.7%
same,Activity,Hep 3B2 [34],0.1%
same,Activity,Huh-7 [35],Active
same,viability at 0.01 µM,Hep 3B2 [36],67.2%
same,Activity,Hep 3B2 [37],2.5%
same,Activity,Huh-7 [38],14.9%
same,Activity,Huh-7 [39],Active
same,Activity,Hep 3B2 [40],Active
same,viability at 0.01 µM,Huh-7 [41],92.6%
same,Activity,Huh-7 [42],Active
